{
  "source": "patent US20050148069A1",
  "about": "“IGF-1 instructs multipotent adult CNS neural stem cells to an oligodendroglial lineage” (priority 2003, published 2005)",
  "key": {"[1]": {"test_system": "adult hippocampus-derived neural progenitor cells", "experiment": "proliferation by BrdU incorporation", "format": "cell-based, rat", "conditions": "500 ng/ml IGF-I", "experimental": "We next determined whether proliferation of progenitors might contribute to the observed increase in oligodendrocyte differentiation. Bromodeoxyuridine (BrdU) (2.5 μM) was added to parallel cultures for 12 hours at times 0-, 12-, 24-, and 36-h after plating, followed by fixation and quantification of total cell numbers and BrdU+ cells. We counted the progenitor cells (evidenced by a lack of RIP staining) that were labeled with BrdU at each time point. For cells grown in the absence of IGF-I, we observed a progressive decrease in the percentage of cells that were proliferating (BrdU+) during the 48-h experiments (FIG. 3B). […] This initial decrease in proliferation is most likely due to FGF-2 mitogen withdrawal. […]\nCells were fixed with 4% paraformaldehyde, followed by immunocytochemical staining as described (Palmer et al., 1999). […] Quantification of cell phenotypes was with StereoInvestigator (MicroBrightfield Inc.); for each marker, 500-1000 cells were sampled systematically from standardized fields at 40×magnification. For quantification of live/dead cells, images were taken of cultures live-stained with propidum iodide (1 μg/ml; Molecular Probes) and Hoescht 33342 (1 μg/ml; Sigma) at 10×magnification, and cells were counted using Image-Pro (Media Cybernetics). […]"}, "Noggin": {"test_system": "Noggin", "experiment": "quantitative real time PCR, Noggin expression", "format": "cell-based, rat", "conditions": "500 ng/ml IGF-I, up to 48 hours, normalized to GAPDH", "from_the_text": "(§1) If IGF-I induction of oligodendrocyte differentiation involves the inhibition of BMP signaling, a change in the expression of BMP antagonists after IGF-I treatment might be observed. In addition to extracellular antagonists of BMP signaling, such as Noggin, intracellular proteins that can interfere with downstream BMP receptor signaling, called inhibitory Smads (Smad6, 7), have also been identified (Christian and Nakayama, 1999). Therefore, we performed Q-PCR analyses of cultures treated with IGF-I after various time points (up to 48 hours) and examined the relative fold change (normalized to an internal control; see Methods) of Noggin, Smad6, 7 (FIG. 6, A-C). Expression of Noggin, Smad6, 7 increased by at least 6-, 5-, and 2-fold, respectively, after IGF-I treatment (p<0.05, t-test). There may be an unexplained downregulation of Smad6 at the 48-h time point.\n(§2) Total RNA was isolated from cell cultures using RNeasy columns (Qiagen). For real-time quantitative PCR, reactions were carried out essentially as described (Zhao et al., 2001). The relative amount of the tested message was normalized to the level of the internal control message, GAPDH. […] Primer sequences are available upon request."}, "[2]": {"test_system": "adult hippocampus-derived neural progenitor cells", "experiment": "in vitro differentiation analysis of neural progenitor cells (immunocytochemistry for lineage markers)", "format": "cell-based, rat", "experimental": "The neural progenitor cells isolated from the hippocampus of female Fischer 344 used in this study have been characterized previously (Gage et al., 1995; Palmer et al., 1997). The whole brain-derived neural stem cells from PIO ICR mice were isolated and cultured according to the methods as described, with slight modifications. Cells were cultured as previously described (Gage et al., 1995; Ray et al., 1993). Cells between passages 10 and 20 were used for in vitro differentiation analyses. To induce differentiation, cells were plated into 4-well chamber slides at a density of 55,000-75,000 cells per well and were allowed to proliferate in N2-supplemented (Invitrogen) DMEM:F12 (Omega Scientific) medium containing 20 ng/ml FGF-2 (PeproTech, Inc.) for 24 hours. FGF-2 was then withdrawn and cells were subsequently treated with differentiation media. […] For IGF-induction experiments, cells were trypsinized, washed with 1× PBS, and plated into insulin-free N2 medium. […] In some cultures, BrdU (2.5 μM, Sigma) was added to label dividing cells, and Q-VD-OPh (2 μM, Enzyme Systems Products) was added to prevent apoptosis.\nCells were fixed with 4% paraformaldehyde, followed by immunocytochemical staining as described (Palmer et al., 1999). Labeled cells were visualized using a Nikon E800 upright microscope or a Nikon E600 inverted microscope (Nikon Inc.) and a Spot RT CCD camera (Diagnostic Instruments Inc.). 4′,6-diamidino-2-phenylindole (DAPI) was used to identify individual cells. Quantification of cell phenotypes was with StereoInvestigator (MicroBrightfield Inc.); for each marker, 500-1000 cells were sampled systematically from standardized fields at 40×magnification. For quantification of live/dead cells, images were taken of cultures live-stained with propidum iodide (1 μg/ml; Molecular Probes) and Hoescht 33342 (1 μg/ml; Sigma) at 10×magnification, and cells were counted using Image-Pro (Media Cybernetics). The following primary antibodies were used: rabbit anti-Tuj1 (1:7500;Covance), mouse anti-RIP (1:25-1:75; Hybridoma Bank); guinea pig anti-GFAP (1:500-1:2500; Advanced Immunochemical, Inc.); rabbit anti-MBP (1:500; Chemicon International Inc.), rat anti-BrdU (1:400; Accurate). Secondary antibodies were all from Jackson ImmunoResearch and used at 1:250 dilution. The detection of BrdU in cultured cells required treatment in 2 N HCL at 37° C. for 30 min (Palmer et al., 1999). All experiments were independently replicated at least 3 times."}, "Smad6": {"test_system": "Smad6", "experiment": "quantitative real time PCR, Smad6 expression", "format": "cell-based, rat", "conditions": "500 ng/ml IGF-I, up to 48 hours, normalized to GAPDH", "from_the_text": "as §1, §2"}, "Smad7": {"test_system": "Smad7", "experiment": "quantitative real time PCR, Smad7 expression", "format": "cell-based, rat", "conditions": "500 ng/ml IGF-I, up to 48 hours, normalized to GAPDH", "from_the_text": "as §1, §2"}, "[3]": {"test_system": "multipotent neural progenitor cells derived from the whole brain of P10 ICR mice", "experiment": "differentiation of whole brain-derived multipotent neural progenitor cells", "format": "cell-based, mouse", "conditions": "IGF-I treatment, primary cultures (unpublished data)", "experimental": "The neural progenitor cells isolated from the hippocampus of female Fischer 344 used in this study have been characterized previously (Gage et al., 1995; Palmer et al., 1997). The whole brain-derived neural stem cells from PIO ICR mice were isolated and cultured according to the methods as described, with slight modifications. Cells were cultured as previously described (Gage et al., 1995; Ray et al., 1993). Cells between passages 10 and 20 were used for in vitro differentiation analyses. To induce differentiation, cells were plated into 4-well chamber slides at a density of 55,000-75,000 cells per well and were allowed to proliferate in N2-supplemented (Invitrogen) DMEM:F12 (Omega Scientific) medium containing 20 ng/ml FGF-2 (PeproTech, Inc.) for 24 hours. FGF-2 was then withdrawn and cells were subsequently treated with differentiation media. […] For IGF-induction experiments, cells were trypsinized, washed with 1× PBS, and plated into insulin-free N2 medium. Either human recombinant IGF-I or IGF-II (500 ng/ml; R&D Systems) or insulin (500 ng/ml; Sigma) was added for 4 days, except when indicated otherwise. In some cultures, BrdU (2.5 μM, Sigma) was added to label dividing cells, and Q-VD-OPh (2 μM, Enzyme Systems Products) was added to prevent apoptosis."}},
  "data": [
    {"substance": "IGF-I: human recombinant IGF-I (R&D Systems), growth factor polypeptide", "values": [
      {"measurement": "percentage of RIP− cells that incorporated BrdU", "setting": "[1]; 12-h BrdU periods up to 48 h", "value": "decreasing trend in the first three time periods"},
      {"measurement": "RIP+ cells positive for BrdU", "setting": "[1]; after 24 hours", "value": "significant increase in RIP+ cells positive for BrdU"},
      {"measurement": "relative fold change of Noggin expression", "setting": "Noggin", "value": "at least 6 fold"},
      {"measurement": "RIP+ cells", "setting": "[2]; 500 ng/ml IGF-1 added to Q-VD-OPh-treated 2-day cultures", "value": "large increase in RIP+ cells"},
      {"measurement": "total cells positive for myelin basic protein (MBP)", "setting": "[2]; 500 ng/ml IGF-I, 4-day time point", "value": "Approximately 23%"},
      {"measurement": "overall number of RIP+ cells over time", "setting": "[2]; 500 ng/ml IGF-I, 12 h to 48 h", "value": "progressive increase in the overall number of RIP+ cells over time"},
      {"measurement": "percentage of RIP+ cells", "setting": "[2]; 500 ng/ml, 4 days, insulin-free N2 medium", "value": "45-55%"},
      {"measurement": "dose dependence of oligodendrocyte differentiation", "setting": "[2]; 20-500 ng/ml, 4-day cultures", "value": "occurred in a dose-dependent manner"},
      {"measurement": "percentage of Tuj1-positive cells across tested concentrations", "setting": "[2]; 20-500 ng/ml, 4-day cultures", "value": "did not appear to change"},
      {"measurement": "rank order of potency for oligodendrocyte differentiation", "setting": "[2]; different concentrations (20-1000 ng/ml)", "value": "IGF-I>IGF-II>insulin"},
      {"measurement": "GFAP+ astrocytes", "setting": "[2]; each at 500 ng/ml, 4 days", "value": "few to no GFAP+ astrocytes"},
      {"measurement": "oligodendrocyte-promoting effects in other rat lines", "setting": "[2]; independently derived rat hippocampus progenitor cell line and clonally derived line (unpublished data)", "value": "confirmed"},
      {"measurement": "relative fold change of Smad6 expression", "setting": "Smad6", "value": "≥ 5", "unit": "fold"},
      {"measurement": "relative fold change of Smad7 expression", "setting": "Smad7", "value": "≥ 2", "unit": "fold"},
      {"measurement": "differentiation into oligodendrocytes", "setting": "[3]", "value": "exhibited a preferential differentiation into oligodendrocytes"}
    ]}
  ]
}
